Values joined by “and” are separate entries in the source; they are usually repeats but may differ in a detail not shown here. Identical values can stand only once. After the bases stand the sugars from the 5' end (letter, count) and the backbone: PS all phosphorothioate, else s phosphorothioate and o phosphodiester by linkage. Methylation of C is not given here. e = 2'-O-(2-methoxyethyl) (MOE); k = constrained ethyl (cEt); d = 2'-deoxy (DNA)
Molecular target: IRF4
Conditions: ASO

Sequence | target mRNA inhibition (SK-MEL-28, 4 µM) | target mRNA inhibition (MM.1R, 1 µM) | other results
ACTGAGTGTGCAGTTC (sugars k3 d10 k3, PS) | 36% | – | –
TATTACTCTTAGGCAC (sugars k3 d10 k3, PS) | 44% | – | –
ACAAGCAGTGATGTCA (sugars k3 d10 k3, PS) | 73% | 14% | target mRNA inhibition (MM.1R, 0.0625 µM): -4%; target mRNA inhibition (MM.1R, 0.074 µM): 2%; target mRNA inhibition (MM.1R, 0.222 µM): 6%; target mRNA inhibition (MM.1R, 0.25 µM): 5%; target mRNA inhibition (MM.1R, 0.666 µM): 14%; target mRNA inhibition (MM.1R, 2 µM): 46%; target mRNA inhibition (MM.1R, 4 µM): 52%
TGCTTGAGGTTTTCCT (sugars kkddddddddddkeke, PS) | – | 33% | –
GGTTGGCTGGTCTTTG (sugars kkddddddddddkeke, PS) | – | 76% and 60% | target mRNA inhibition (MM.1R, 0.0625 µM): 18%; target mRNA inhibition (MM.1R, 0.25 µM): 33%; target mRNA inhibition (MM.1R, 4 µM): 72%
TTGTCCTCTGGGTAGG (sugars k3 d10 k3, PS) | 30% | – | –
AAATATACCAGCTCAA (sugars k3 d10 k3, PS) | 25% | – | –
CTTTGATGAGCAGATC (sugars k3 d10 k3, PS) | 12% | – | –
CAAGTAATTTTAAGGC (sugars k3 d10 k3, PS) | 41% | – | –
GTTGACAAATAAGGTA (sugars k3 d10 k3, PS) | 60% | – | –
GCCAAGGATAACCTGA (sugars k3 d10 k3, PS) | 69% | 27% | target mRNA inhibition (MM.1R, 0.0625 µM): 1%; target mRNA inhibition (MM.1R, 0.074 µM): 0%; target mRNA inhibition (MM.1R, 0.222 µM): 5%; target mRNA inhibition (MM.1R, 0.25 µM): 10%; target mRNA inhibition (MM.1R, 0.666 µM): 13%; target mRNA inhibition (MM.1R, 2 µM): 37%; target mRNA inhibition (MM.1R, 4 µM): 59%
CACGAAACACAGTCTG (sugars k3 d10 k3, PS) | 52% | – | –
TGTAATGTAGGGATAC (sugars k3 d10 k3, PS) | 53% | – | –
ACAAAAGGTTCCCGCG (sugars k3 d10 k3, PS) | 3% | – | –
GCTGAAACGGTCAGCA (sugars k3 d10 k3, PS) | – | 8% | –
GCCAACTTATAGCACT (sugars k3 d10 k3, PS) | – | – | target mRNA inhibition (MM.1R, 0.0625 µM): 17%; target mRNA inhibition (MM.1R, 0.25 µM): -17%; target mRNA inhibition (MM.1R, 4 µM): 8%
TTCTAATGGTGCTCCT (sugars k3 d10 k3, PS) | 7% | – | –
GACAGCATAGCATTAT (sugars k3 d10 k3, PS) | 72% and 77% | – | –
CCTGTAGTATGAGAAA (sugars k3 d10 k3, PS) | 57% | – | –
GATTATATACTGGTTG (sugars k2 d9 e3 k2, PS) | – | 42% | –
GTAGTATGAGAAACGG (sugars kkkddddddddkekek, PS) | – | 43% | –
TCCTAAATCACCCTGG (sugars k3 d10 k3, PS) | 21% | – | –
CGTGTGCTTGCCAAGC (sugars kddddddddddkekek, PS) | – | 30% and 32% | –
ACAGAGCCAACTTATA (sugars k3 d10 k3, PS) | 6% | – | –

Sequence | target mRNA inhibition (SK-MEL-28, 4 µM) | target mRNA inhibition (MM.1R, 1 µM) | other results
CAAATTCAGGAGAGCC (sugars k3 d10 k3, PS) | 19% | – | –
ACTTAGACATTACTAG (sugars k3 d10 k3, PS) | 20% | – | –
AGTATGAGAAACGGCC (sugars kkdddddddddekeke, PS) | – | 11% | –
GCGCGGAGGACCTCGC (sugars k3 d10 k3, PS) | 10% | – | –
AACTGAGAGTGCGAGG (sugars k3 d10 k3, PS) | 1% | – | –
GAAGCATTTTATCATC (sugars kkddddddddddkeke, PS) | – | -7% | –
TGATAGTGGTGATGTC (sugars k3 d10 k3, PS) | 54% | – | –
CTACACCTACACAGGC (sugars k3 d10 k3, PS) | 16% | – | –
GTTCAAGTATTAAGAT (sugars k3 d10 k3, PS) | 29% | – | –
CGCTCAACCAGTTCCT (sugars k3 d10 k3, PS) | 28% | – | –
AGTTGTAAATGAGTCG (sugars kkkddddddddkekek, PS) | – | 61% | target mRNA inhibition (MM.1R, 0.074 µM): 18%; target mRNA inhibition (MM.1R, 0.222 µM): 46%; target mRNA inhibition (MM.1R, 0.666 µM): 49%; target mRNA inhibition (MM.1R, 2 µM): 73%
TTCTAGCTAACTTACA (sugars k3 d10 k3, PS) | – | -18% | –
GCAGCCAAGGATAACC (sugars k3 d10 k3, PS) | – | 6% | –
TGACATGCTTTGTCCT (sugars k3 d10 k3, PS) | 59% | – | –
GGACAGACCAGGATTC (sugars k3 d10 k3, PS) | 25% | – | –
GTCCTGCTTGCCCGCG (sugars k3 d10 k3, PS) | 31% | – | –
GGACAATGGAGATACT (sugars k3 d10 k3, PS) | – | 3% | –
CACCAGGAAACCGCTG (sugars k3 d10 k3, PS) | 15% | – | –
GGAACTAGTCGACAGC (sugars k3 d10 k3, PS) | – | 18% | –
TTATATATGACGACTT (sugars k3 d10 k3, PS) | 35% | – | –
CAAACTCCTCAGGGAA (sugars k4 d8 k4, PS) | 17% | – | –
TCTTCCAGCAAGACCT (sugars k3 d10 k3, PS) | 28% | – | –
GACCATCTGATCCGGA (sugars k3 d10 k3, PS) | – | 2% | –
ATGAGTCGGTCACTTG (sugars k3 d10 k3, PS) | 78% and 72% | – | –

Sequence | target mRNA inhibition (SK-MEL-28, 4 µM) | target mRNA inhibition (MM.1R, 1 µM) | other results
AAAAATATAACGGTGT (sugars k3 d10 k3, PS) | 24% | – | –
CTACATTTCTTATGCA (sugars k3 d10 k3, PS) | 39% | – | –
CTATAGTGTTCCAGGA (sugars kkdddddddddkdkdk, PS) | – | 49% | target mRNA inhibition (MM.1R, 0.074 µM): 19%; target mRNA inhibition (MM.1R, 0.222 µM): 23%; target mRNA inhibition (MM.1R, 0.666 µM): 42%; target mRNA inhibition (MM.1R, 2 µM): 68%
GGCGGAGCTTCCCGTT (sugars k3 d10 k3, PS) | 26% | – | –
TCAGTTTGTGAAGCAT (sugars kkddddddddddkeke, PS) | – | 33% | –
CTTGTCTCCCCCAGAG (sugars k3 d10 k3, PS) | 3% | – | –
TCAGTTGTAAATGAGT (sugars k3 d10 k3, PS) | 72% | – | –
ACAAGCTGGGCCTTGC (sugars k3 d10 k3, PS) | 27% | – | –
TACTGCTTGAGGTTTT (sugars kdddddddddkekeke, PS) | – | 14% | –
AATGTGTATTACTCTT (sugars kkdddddddddkdkdk, PS) | – | 10% and 15% | –
CAGACCTTATGCTTGG (sugars k3 d10 k3, PS) | 10% | – | –
ACCTCAGTTTGTGAAG (sugars k2 d9 e3 k2, PS) | – | 4% | –
GTCTGAGGGAATCTGC (sugars k3 d10 k3, PS) | 49% | – | –
AGTGATGTCAGGTTTT (sugars kkkddddddddkekek, PS) | – | 37% | –
ACACTTTTAGAGAGGA (sugars kddddddddddkekek, PS) | – | -6% | –
CATGAGGGTGACACAC (sugars k3 d10 k3, PS) | 47% | – | –
GTGAAACAGCAGTTCT (sugars k3 d10 k3, PS) | 62% | – | –
CACAAGCAGTGATGTC (sugars k3 d10 k3, PS) | 60% | – | –
GCGCACTAAGTGGGCT (sugars k3 d10 k3, PS) | -10% | – | –
ACTCACTAAAGACTAT (sugars k3 d10 k3, PS) | 18% | – | –
TCTAATGGTGCTCCTA (sugars k3 d10 k3, PS) | 51% | – | –
CCTTAAGCTATTTGGT (sugars k3 d10 k3, PS) | – | -786% | –
